Experimental data: paper PMC6449304, “Novel parameter describing restriction endonucleases: Secondary-Cognate-Specificity and chemical stimulation of TsoI leading to substrate specificity change” (Applied Microbiology and Biotechnology, 2019)

Biological target: T1, TsoI (Thermus scotoductus, UniProt T1RQY5)
T1 construct: gene tsoIRM; native enzyme purified from Thermus scotoductus RFL4; bifunctional REase-MTase, TspDTI subfamily
T1 sequence (T1RQY5 1-1116): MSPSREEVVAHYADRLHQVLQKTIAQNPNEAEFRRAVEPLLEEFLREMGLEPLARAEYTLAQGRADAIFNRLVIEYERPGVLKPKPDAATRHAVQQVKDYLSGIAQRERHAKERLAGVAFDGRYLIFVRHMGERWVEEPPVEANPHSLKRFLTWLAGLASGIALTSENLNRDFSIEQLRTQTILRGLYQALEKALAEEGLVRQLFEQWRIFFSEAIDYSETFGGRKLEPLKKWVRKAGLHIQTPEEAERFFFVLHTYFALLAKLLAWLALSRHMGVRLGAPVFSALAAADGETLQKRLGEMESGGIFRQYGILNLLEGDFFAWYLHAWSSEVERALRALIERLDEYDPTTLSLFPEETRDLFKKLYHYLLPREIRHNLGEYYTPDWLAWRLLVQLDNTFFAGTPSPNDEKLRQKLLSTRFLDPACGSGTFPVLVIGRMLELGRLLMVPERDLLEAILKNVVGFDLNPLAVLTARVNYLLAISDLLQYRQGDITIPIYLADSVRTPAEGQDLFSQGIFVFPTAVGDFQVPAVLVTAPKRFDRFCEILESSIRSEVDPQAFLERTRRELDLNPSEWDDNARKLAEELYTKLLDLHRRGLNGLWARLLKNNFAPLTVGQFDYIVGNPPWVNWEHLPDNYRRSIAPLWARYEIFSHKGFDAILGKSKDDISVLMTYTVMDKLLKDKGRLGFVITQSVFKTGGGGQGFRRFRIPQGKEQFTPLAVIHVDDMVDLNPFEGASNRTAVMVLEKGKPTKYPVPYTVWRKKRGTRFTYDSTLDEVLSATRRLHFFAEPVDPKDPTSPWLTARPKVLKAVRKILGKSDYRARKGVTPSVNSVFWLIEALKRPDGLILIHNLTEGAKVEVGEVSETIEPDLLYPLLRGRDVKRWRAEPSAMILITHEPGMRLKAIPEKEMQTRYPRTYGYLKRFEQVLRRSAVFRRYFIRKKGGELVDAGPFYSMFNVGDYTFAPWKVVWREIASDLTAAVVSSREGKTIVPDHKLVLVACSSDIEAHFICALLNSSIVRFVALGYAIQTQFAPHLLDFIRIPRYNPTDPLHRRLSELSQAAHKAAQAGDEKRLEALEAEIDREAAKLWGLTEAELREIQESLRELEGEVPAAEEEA
Assay: DNA cleavage assay, agarose gel (stimulation of secondary-cognate-specificity cleavage)
Assay type: biochemical
Conditions: pUC19 supercoiled DNA; 500 uM compound (31.25-500 uM tested); 10 mM Tris-HCl pH 7.5, 10 mM MgCl2, 50 mM NaCl, 55 °C, 1 h; activator, presumed SAM-binding motif

## Nc1ncnc2c1ncn2[C@@H]1O[C@H](CSC[C@H](N)C(=O)O)[C@@H](O)[C@H]1O [SAC, S-adenosyl-L-cysteine]
  DNA cleavage assay, agarose gel (stimulation of secondary-cognate-specificity cl): efficiency of TsoI SCS cleavage is significantly stimulated by high concentrations of SAC
